Read-outs that look alike come from different tables or passages of the source.
Experiments:
Assay type in all cases: in vivo
Phytophthora infestans = conditions: for Test D disease control rating: tomato late blight; for Test D disease control rating (100 = 100% disease control, 0 = no disease control): tomato seedlings sprayed to run-off, inoculated the following day, rating relative to controls, unmarked compounds (standard test rate)
Pyricularia oryzae = conditions: for Test C disease control rating: rice blast; for Test C disease control rating (100 = 100% disease control, 0 = no disease control): rice seedlings sprayed to run-off, inoculated the following day, rating relative to controls, unmarked compounds (standard test rate)
Botrytis cinerea = assay: Test E: gray mold, preventive spray on cucumber seedlings; conditions: for Test E disease control rating: gray mold on cucumber; for Test E disease control rating (100 = 100% disease control, 0 = no disease control): cucumber seedlings sprayed to run-off, inoculated the following day, rating relative to controls, unmarked compounds (standard test rate)
Outline: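 Preventive spray on cucumber seedlings used a suspension (3% acetone, 250 ppm Trem 014), applied to run-off one day before inoculation with Botrytis cinerea spores. Plants were held 48 h at 20° C in saturated air, then 5 days at 20° C. Percent disease control was scored relative to untreated plants.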

[1] = system: Eiysiphe graminis f. sp. tritici; assay: Test A: wheat powdery mildew, preventive spray on wheat seedlings; conditions: for Test A disease control rating: wheat powdery mildew; for Test A disease control rating (100 = 100% disease control, 0 = no disease control): wheat seedlings sprayed to run-off, inoculated the following day, rating relative to controls, unmarked compounds (standard test rate)
Outline: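 Preventive test: seedlings inoculated with powdery mildew spores one day after run-off spraying of a suspension. Ratings after 7 days in a 20° C growth chamber express percent disease control versus controls.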

Puccinia recondita = assay: Test B: wheat leaf rust, preventive spray on wheat seedlings; conditions: for Test B disease control rating: wheat leaf rust; for Test B disease control rating (100 = 100% disease control, 0 = no disease control): wheat seedlings sprayed to run-off, inoculated the following day, rating relative to controls, unmarked compounds (standard test rate)
Outline: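 Preventive test: P. recondita spores were applied one day after a run-off spray of compound suspension on wheat seedlings. Plants had 24 h at 20 °C in saturated air plus 6 days in a 20 °C growth chamber. Scoring is % disease control (100 = full) relative to controls.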

[2] = 100 = 100% disease control, 0 = no control, unmarked entries (standard test concentration)
[3] = 100 = 100% disease control, 0 = no control relative to controls, unmarked entries (standard test concentration)

CCC1(C(=O)NCC=Cc2cccc(Br)c2)C(C)C1(Cl)Cl (stereo not shown) [compound 160]
Test D disease control rating (Phytophthora infestans; tested at 40 ppm): 85%
Test C disease control rating (Pyricularia oryzae; tested at 40 ppm): 52%
Test E disease control rating (Botrytis cinerea; tested at 40 ppm): 0%
Test A disease control rating ([1]; tested at 40 ppm): 57%
Test B disease control rating (Puccinia recondita; tested at 40 ppm): 86%

C#CC(C)(C)C(C#N)C(=O)NC(C)COc1cc(F)ccc1OC(F)F (mixture of isomers) [compound 295]
Test D disease control rating (100 = 100% disease control, 0 = no disease control) (Phytophthora infestans): 0%
Test C disease control rating (100 = 100% disease control, 0 = no disease control) (Pyricularia oryzae): 100%
Test E disease control rating (100 = 100% disease control, 0 = no disease control) (Botrytis cinerea): 0%
Test A disease control rating (100 = 100% disease control, 0 = no disease control) [1]: 0%
Test B disease control rating (100 = 100% disease control, 0 = no disease control) (Puccinia recondita): 0%

CCC1(C(=O)NC(C)COc2ccc(F)cc2)C(C)C1(Cl)Cl (mixture of isomers) [80a]
Test D disease control rating (Phytophthora infestans; tested at 40 ppm): 20%
Test C disease control rating (Pyricularia oryzae; tested at 40 ppm): 86%
Test E disease control rating (Botrytis cinerea; tested at 40 ppm): 0%
Test A disease control rating ([1]; tested at 40 ppm): 0%
Test B disease control rating (Puccinia recondita; tested at 40 ppm): 0%

C[C@H](COc1ccc(F)cc1Cl)NC(=O)C(C#N)C(C)(C)C (single isomer, unassigned) [37a]
Test D disease control rating (Phytophthora infestans; [2]): 68%
Test C disease control rating (Pyricularia oryzae; [2]): 100%
Test E disease control rating (Botrytis cinerea; [2]): 0%
Test A disease control rating [1, 3]: 62%
Test B disease control rating (Puccinia recondita; [2]): 68%

CC(COc1ccc(F)cc1)NC(=O)C(C#N)C(C)(C)C (single isomer, unassigned) [4a]
Test D disease control rating (Phytophthora infestans; [2]): 66%
Test C disease control rating (Pyricularia oryzae; [2]): 99%
Test E disease control rating (Botrytis cinerea; [2]): 0%
Test A disease control rating [1, 3]: 0%
Test B disease control rating (Puccinia recondita; [2]): 67%

Cc1c(Cl)cc(C#N)n1OCC(C)NC(=O)C(C#N)C(C)(C)C (mixture of isomers) [compound 49]
Test D disease control rating (Phytophthora infestans; [2]): 0%
Test C disease control rating (Pyricularia oryzae; [2]): 0%
Test E disease control rating (Botrytis cinerea; [2]): 0%
Test A disease control rating [1, 3]: 0%
Test B disease control rating (Puccinia recondita; [2]): 0%

C[C@H](COc1ccc(Br)cc1)NC(=O)C(C#N)C(C)(C)C (single isomer, unassigned) [10c]
Test D disease control rating (Phytophthora infestans; [2]): 35%
Test C disease control rating (Pyricularia oryzae; [2]): 53%
Test E disease control rating (Botrytis cinerea; [2]): 0%
Test A disease control rating [1, 3]: 0%
Test B disease control rating (Puccinia recondita; [2]): 86%

CCC1(C(=O)NC(C)CCn2c(C#N)cc(Br)c2C)C(C)C1(Cl)Cl (mixture of isomers) [compound 143]
Test D disease control rating (Phytophthora infestans; [2]): 0%
Test C disease control rating (Pyricularia oryzae; [2]): 53%
Test E disease control rating (Botrytis cinerea; [2]): 0%
Test A disease control rating [1, 3]: 0%
Test B disease control rating (Puccinia recondita; [2]): 0%

C[C@H](COc1ccc(F)cc1Br)NC(=O)C(C#N)C(C)(C)C (single isomer, unassigned) [165b]
Test D disease control rating (Phytophthora infestans; [2]): 23%
Test C disease control rating (Pyricularia oryzae; [2]): 94%
Test E disease control rating (Botrytis cinerea; [2]): 95%
Test A disease control rating [1, 3]: 95%
Test B disease control rating (Puccinia recondita; [2]): 0%

CC(COc1ccccc1C(C)(C)C)NC(=O)C(C#N)C(C)(C)C (mixture of isomers) [compound 23]
Test D disease control rating (Phytophthora infestans; [2]): 48%
Test C disease control rating (Pyricularia oryzae; [2]): 97%
Test E disease control rating (Botrytis cinerea; [2]): 0%
Test A disease control rating [1, 3]: 0%
Test B disease control rating (Puccinia recondita; [2]): 0%

CCC1(C(=O)NC(C)COc2ccccc2OC(F)(F)C(F)F)C(C)C1(Cl)Cl (mixture of isomers) [compound 90]
Test D disease control rating (Phytophthora infestans; [2]): 0%
Test C disease control rating (Pyricularia oryzae; [2]): 32%
Test E disease control rating (Botrytis cinerea; [2]): 0%
Test A disease control rating [1, 3]: 84%
Test B disease control rating (Puccinia recondita; [2]): 0%

CCC1(C(=O)NCC=Cc2cccc(F)c2)C(C)C1(Cl)Cl (stereo not shown) [compound 264]
Test D disease control rating (100 = 100% disease control, 0 = no disease control) (Phytophthora infestans): 54%
Test C disease control rating (100 = 100% disease control, 0 = no disease control) (Pyricularia oryzae): 90%
Test E disease control rating (100 = 100% disease control, 0 = no disease control) (Botrytis cinerea): 94%
Test A disease control rating (100 = 100% disease control, 0 = no disease control) [1]: 0%
Test B disease control rating (100 = 100% disease control, 0 = no disease control) (Puccinia recondita): 0%

CCC1(C(=O)NC(C)COc2ccc(Br)cc2)C(C)C1(Cl)Cl (mixture of isomers) [86a]
Test D disease control rating (Phytophthora infestans; tested at 40 ppm): 0%
Test C disease control rating (Pyricularia oryzae; tested at 40 ppm): 0%
Test E disease control rating (Botrytis cinerea; tested at 40 ppm): 0%
Test A disease control rating ([1]; tested at 40 ppm): 0%
Test B disease control rating (Puccinia recondita; tested at 40 ppm): 67%

CCC1(C(=O)NC(C)COc2ccc(Cl)c(Cl)c2)C(C)C1(Cl)Cl (stereo not shown) [compound 230]
Test D disease control rating (100 = 100% disease control, 0 = no disease control) (Phytophthora infestans): 0%
Test C disease control rating (100 = 100% disease control, 0 = no disease control) (Pyricularia oryzae): 53%
Test E disease control rating (100 = 100% disease control, 0 = no disease control) (Botrytis cinerea): 45%
Test A disease control rating (100 = 100% disease control, 0 = no disease control) [1]: 0%
Test B disease control rating (100 = 100% disease control, 0 = no disease control) (Puccinia recondita): 0%

CC(COc1ccccc1)NC(=O)C1(C)C(C)C1(Cl)Cl (mixture of isomers) [compound 310]
Test D disease control rating (100 = 100% disease control, 0 = no disease control) (Phytophthora infestans): 0%
Test C disease control rating (100 = 100% disease control, 0 = no disease control) (Pyricularia oryzae): 53%
Test E disease control rating (100 = 100% disease control, 0 = no disease control) (Botrytis cinerea): 18%
Test A disease control rating (100 = 100% disease control, 0 = no disease control) [1]: 84%
Test B disease control rating (100 = 100% disease control, 0 = no disease control) (Puccinia recondita): 25%

CCC1(C(=O)NC(C)COc2ccc(Cl)c(Cl)c2Cl)C(C)C1(Cl)Cl (stereo not shown) [compound 243]
Test D disease control rating (100 = 100% disease control, 0 = no disease control) (Phytophthora infestans): 74%
Test C disease control rating (100 = 100% disease control, 0 = no disease control) (Pyricularia oryzae): 74%
Test E disease control rating (100 = 100% disease control, 0 = no disease control) (Botrytis cinerea): 0%
Test A disease control rating (100 = 100% disease control, 0 = no disease control) [1]: 38%
Test B disease control rating (100 = 100% disease control, 0 = no disease control) (Puccinia recondita): 0%

CC(COc1ccccc1I)NC(=O)C(C#N)C(C)(C)C (mixture of isomers) [11a]
Test D disease control rating (Phytophthora infestans; [2]): 0%
Test C disease control rating (Pyricularia oryzae; [2]): 97%
Test E disease control rating (Botrytis cinerea; [2]): 82%
Test A disease control rating [1, 3]: 77%
Test B disease control rating (Puccinia recondita; [2]): 0%

C=CC(C)(CF)C(C#N)C(=O)NC(C)COc1cc(Cl)ccc1Cl (mixture of isomers) [compound 219]
Test D disease control rating (100 = 100% disease control, 0 = no disease control) (Phytophthora infestans): 96%
Test C disease control rating (100 = 100% disease control, 0 = no disease control) (Pyricularia oryzae): 99%
Test E disease control rating (100 = 100% disease control, 0 = no disease control) (Botrytis cinerea): 0%
Test A disease control rating (100 = 100% disease control, 0 = no disease control) [1]: 86%
Test B disease control rating (100 = 100% disease control, 0 = no disease control) (Puccinia recondita): 86%

CCC1(C(=O)NC(C)COc2ccccc2C(C)(C)C)C(C)C1(Cl)Cl (stereo not shown) [compound 100]
Test D disease control rating (Phytophthora infestans; tested at 40 ppm): 0%
Test C disease control rating (Pyricularia oryzae; tested at 40 ppm): 0%
Test E disease control rating (Botrytis cinerea; tested at 40 ppm): 0%
Test A disease control rating ([1]; tested at 40 ppm): 52%
Test B disease control rating (Puccinia recondita; tested at 40 ppm): 0%

CCC1(C(=O)NC(C)COc2cccc(F)c2)C(C)C1(Cl)Cl (mixture of isomers) [79b]
Test D disease control rating (Phytophthora infestans; tested at 40 ppm): 0%
Test C disease control rating (Pyricularia oryzae; tested at 40 ppm): 100%
Test E disease control rating (Botrytis cinerea; tested at 40 ppm): 0%
Test A disease control rating ([1]; tested at 40 ppm): 0%
Test B disease control rating (Puccinia recondita; tested at 40 ppm): 0%

CCC1(C(=O)NC(C)COc2ccccc2CF)C(C)C1(Cl)Cl (mixture of isomers) [compound 92]
Test D disease control rating (Phytophthora infestans; tested at 40 ppm): 0%
Test C disease control rating (Pyricularia oryzae; tested at 40 ppm): 0%
Test E disease control rating (Botrytis cinerea; tested at 40 ppm): 0%
Test A disease control rating ([1]; tested at 40 ppm): 60%
Test B disease control rating (Puccinia recondita; tested at 40 ppm): 0%

CC(COc1ccc(F)cc1)NC(=O)C(C#N)C(C)(C)C (mixture of isomers) [4c]
Test D disease control rating (Phytophthora infestans; [2]): 0%
Test C disease control rating (Pyricularia oryzae; [2]): 94%
Test E disease control rating (Botrytis cinerea; [2]): 58%
Test A disease control rating [1, 3]: 35%
Test B disease control rating (Puccinia recondita; [2]): 0%

CCC1(C(=O)NCCCn2cccc2)C(C)C1(Cl)Cl (stereo not shown) [compound 145]
Test D disease control rating (Phytophthora infestans; [2]): 20%
Test C disease control rating (Pyricularia oryzae; [2]): 0%
Test E disease control rating (Botrytis cinerea; [2]): 0%
Test A disease control rating [1, 3]: 0%
Test B disease control rating (Puccinia recondita; [2]): 9%

Source: patent US6642392B1 (priority 1997, dated 2003)
